# Measured values reported in US11896706B2, “Composition for preventing hair loss or promoting hair growth, comprising, as active ingredient, mixed extract of cucumber, eggplant and snail extracts as active ingredient” (OGADAL INC., priority 2020, dated 2024).
# Marks after values point to notes of the source that are not given here.
# Tests used:
# [1] = tested on: hepatocyte growth factor (HGF); experiment: RT-PCR expression of hair-related gene HGF in dermal papilla cells; format: cell-based; conditions: 1 μg/mL minoxidil, 18 hours
# Method: (§1) RT-PCR (reverse transcription polymerase chain reaction) was conducted in order to investigate the effect on the expression of hair-related genes, insulin-like growth factor 1 (IGF-1), hepatocyte growth factor (HGF) and keratinocyte growth factor (KGF). Dermal papilla cells were seeded onto a 100-mm cell culture dish at a density of 80% and then cultured for 24 hours at 37° C. in a 5% CO2 incubator. DMEM (Dulbecco's modified Eagle's medium, BRL, USA) containing 10% bovine serum was used as a medium. After adding 100 μg/mL of a sample (Examples 1-1, 1-2, 1-3 and 1-4; Comparative Examples 1-1, 1-2 and 1-3; Examples 2-1, 2-2 and 2-3) or 1 μg/mL minoxidil as a positive control group, the cells were cultured for 18 hours and RNA was isolated by adding 1 mL of Trizol (Invitrogen, USA) according to the Promega's method. After quantifying RNA at 260 nm using a UV detector, RT-PCR was conducted. The RT-PCR was conducted using a RT-PCR kit (All-in-one RT-PCR kit, SuperBio, Korea) under the condition of 40 cycles of reverse transcription at 50° C. for 30 minutes followed by inactivation of reverse transcriptase at 96° C. for 3 minutes, 94° C. for 30 seconds, 58° C. for 30 seconds and 72° C. for 1 minute. The result was represented as percentage (%) of expression relative to the negative control group (Table 3).
# [2] = tested on: insulin-like growth factor 1 (IGF-1); experiment: RT-PCR expression of hair-related gene IGF-1 in dermal papilla cells; format: cell-based; conditions: 1 μg/mL minoxidil, 18 hours
# Method: as §1
# [3] = tested on: keratinocyte growth factor (KGF); experiment: RT-PCR expression of hair-related gene KGF in dermal papilla cells; format: cell-based; conditions: 1 μg/mL minoxidil, 18 hours
# Method: as §1
# [4] = tested on: C57BL/6 mice depilated on the back; experiment: Animal experiment for hair growth-promoting effect in depilated mice; format: in vivo, mouse; conditions: 5 wt % minoxidil, 0.2 mL topical once a day
# Method: The hair growth-promoting effect of the composition of the present disclosure was investigated using C57BL/6 mice. 49- to 51-day-old C57BL/6N mice, in the second […], were depilated completely on the back using wax. While applying 0.2 mL of Example 2-1 or 2-3 at a solid content of 1 wt % or 20 wt %, or 5 wt % minoxidil as a positive control group, diluted in water, once a day for 16 days, hair-growing effect was monitored. Distilled water was used as a negative control group. The hair growth index with time was evaluated by the 3-point scale (see Table 4).
compound,measurement,setting,value
"Nc1cc(N2CCCCC2)nc(N)[n+]1[O-] [Minoxidil, minoxidil]",HGF expression relative to the negative control group,[1],134.6%**
same,IGF-1 expression relative to the negative control group,[2],119.0%**
same,KGF expression relative to the negative control group,[3],120.2%**
same,Hair growth index (3-point scale),[4]; Day 0,0 points
same,Hair growth index (3-point scale),[4]; Day 12,1.22 ± 0.26 points
same,Hair growth index (3-point scale),[4]; Day 16,2.66 ± 0.23 points
